Results taken from US8679736B2, “Removal of adenine during a pathogen reduction process in whole blood or red blood cells by dilution” (Terumo BCT Biotechnologies, LLC, priority 2002, dated 2014).

Tested on: red blood cells
Conditions: riboflavin and visible light, FIG. 4
Text: Red blood cells were suspended in AS3 during a pathogen reduction procedure using riboflavin and visible light. […] AS3 contains sodium chloride, dextrose, adenine, sodium phosphate, sodium citrate and citric acid.

Cc1cc2nc3c(=O)[nH]c(=O)nc-3n(CC(O)C(O)C(O)CO)c2cc1C (stereo not shown) [riboflavin, 7,8-dimethyl-10-ribityl isoalloxazine]
% hemolysis of red blood cells: less than 2%
